From ChEMBL document CHEMBL4706515, “Discovery of new [1,2,4] Triazolo[1,5-a]Pyrimidine derivatives that Kill gastric cancer cells via the mitochondria pathway” (Eur J Med Chem, 2020) come the findings set out here.

The subject of assay [1] is MGC-803. Description: Induction of apoptosis in human MGC-803 cells assessed as early apoptotic cells at 10 uM measure after 24 hrs by Annexin-PI staining based Flowcytometry method (reference value: 9.8%). Type of assay: functional.
Another assay deals with A549. Description: Antiproliferative activity against human A549 cells assessed as inhibition of cell growth at measured after 72 hrs by SRB assay. Type of assay: functional. On the technique in general: Sulforhodamine B stains cellular protein and so reports cell mass.
Assay [2] deals with MGC-803. Description: Induction of apoptosis in human MGC-803 cells assessed as viable cells at 2.5 uM measure after 24 hrs by Annexin-PI staining based Flowcytometry method (reference value: 80%). Type of assay: functional. Conditions: read-out: Activity.
Assay [3] concerns MGC-803. Description: Induction of apoptosis in human MGC-803 cells assessed as increase in accumulation of LC3B-2 preincubated with Chloroquine measured after 24 hrs by western blot assay. Type of assay: functional, cell-based. (In western blotting, separated proteins are transferred to a membrane and probed.)
The test system of assay [4] is MGC-803. Description: Induction of apoptosis in human MGC-803 cells assessed as necrotic cells at 5 uM measure after 24 hrs by Annexin-PI staining based Flowcytometry method (reference value: 3.13%). Type of assay: functional.
Assay [5] has as its system MGC-803. Description: Induction of apoptosis in human MGC-803 cells assessed as late apoptotic cells at 1.25 uM measure after 24 hrs by Annexin-PI staining based Flowcytometry method (reference value: 7.06%). The assay is classed as functional.
For assay [6], the system named is MGC-803. Description: Induction of apoptosis in human MGC-803 cells assessed as late apoptotic cells at 0.625 uM measure after 24 hrs by Annexin-PI staining based Flowcytometry method (reference value: 7.06%). Type of assay: functional.
Assay [7] has as its system MGC-803. Description: Induction of apoptosis in human MGC-803 cells assessed as necrotic cells at 1.25 uM measure after 24 hrs by Annexin-PI staining based Flowcytometry method (reference value: 3.13%). The assay is classed as functional.
For assay [8], the system named is MGC-803. In words: Antiproliferative activity in human MGC-803 cells assessed as inhibition of cell viability preincubated for 1 hr with NAC followed by compound addition at 5 uM measured after 72 hrs by SRB staining method. Type of assay: functional, cell-based.
Assay [9] deals with MGC-803. In words: Induction of apoptosis in human MGC-803 assessed by cleaved PARP levels incubated for 1 hr with Z-LEHD-FMK followed by compound addition measured by western blot assay. Type of assay: functional, cell-based.

Activity calls are given as the source filed them. The calls are words filed in the database; no cut-off is given here.

As usually defined, the GI50 is the concentration that inhibits growth by half. With `Cc1cc(Nc2ccc(C(=O)/C=C/c3cccc(Br)n3)cc2)n2nc(SCc3nc4ccccc4[nH]3)nc2n1`, the Activity was 9.48% with MGC-803 [1]; 4.51% in the assay with MGC-803 [4]; 1.95% in the assay on MGC-803 [5]; 1.81% with MGC-803 [6]; 2.25% in the assay with MGC-803 [7]. Besides, the GI50 in the assay with A549 is more than 10 µM. Moreover, the viability at 2.5 µM with MGC-803 [2] stood at 86.4%. In addition, in the assay with MGC-803 [3], the outcome was Active. For the same compound, the inhibition entry in the assay with MGC-803 [8] is “inactive”. For the same compound, in the assay with MGC-803 [9], the result was inactive.
